{"source": "patent US8158389B2", "about": "“Products and methods for in vivo secretion of monatin” (priority 2005, dated 2012)", "test_system": "E. coli MG1655 ΔAcrAB", "test": "Monatin excretion with 2.5 mM sodium decanoate, E. coli MG1655 ΔAcrAB strains with pUC19, robA, ramA or baeR (24, 30, 48 h)", "type": "cell-based, Escherichia coli", "description": "Conditions for the treatments included 250 rpm agitation throughout and 37° C. up to induction, then, 30° C. following induction. At 0.30-0.50 OD600 nm, induction of the plasmid genes was initiated. At induction, 1.0 mM IPTG, 0.5% L-arabinose, 0.5 mM pyridoxine hydrochloride, and 0.2 mLs of Balch's vitamins were added. Additions of 10 g/L L-tryptophan, 10 g/L sodium pyruvate, 0.04 mM pyridoxal-5′-phosphate (“PLP”) and 0.2% Tween® 20 (polyoxyethylene 20-sorbitan monolaurate) were made 3 hours following induction. Some treatments included 2.5 mM sodium decanoate addition at 3 hours following induction.\nConditions for the treatments included 250 rpm agitation throughout and 37° C. up to induction, then, 30° C. following induction. At an OD600 nm between 0.30-0.50, induction of the plasmid genes was initiated. At induction, 1.0 mM IPTG, 0.5% L-arabinose, 0.5 mM pyridoxine hydrochloride, and 0.2 mLs of Balch's vitamins were added. Additions of 10 g/L L-tryptophan, 10 g/L sodium pyruvate, 0.04 mM pyridoxal-5′-phosphate (“PLP”) and 0.2% Tween® 20 (polyoxyethylene 20-sorbitan monolaurate) were made 3 hours following induction. Some treatments included 2.5 mM sodium decanoate addition at 3 hours following induction.\nConditions for the treatments included 250 rpm agitation throughout and 37° C. up to induction, then, 30° C. following induction. At 0.35-0.38 OD600 nm, induction of the plasmid genes was initiated. At induction, 1.0 mM IPTG, 0.5% L-arabinose, 0.5 mM pyridoxine hydrochloride, and 0.2 mLs of Balch's vitamins were added. Additions of 10 g/L L-tryptophan, 10 g/L sodium pyruvate, 0.04 mM pyridoxal-5′-phosphate (“PLP”) and 0.2% Tween® 20 (polyoxyethylene 20-sorbitan monolaurate) were made 3.5 hours following induction. At 24 hours after inoculation, another 10 g/L increment of sodium pyruvate was added to each flask. Some treatments included 2.5 mM sodium decanoate addition at 3.5 hours following induction.", "key": {"[1]": {"conditions": "ΔAcrAB::aspC proA pProNde del robA pUC19, n = 2"}, "[2]": {"conditions": "ΔAcrAB::aspC proA pProNde del, ramA pUC19, n = 2"}, "[3]": {"conditions": "ΔAcrAB::aspC proA pProNdedel, pUC19 (control), n = 2"}, "[4]": {"conditions": "ΔacrAB AspC ProA pProNde del BaeR pUC19, n = 2"}}, "data": [{"smiles": "CCCCCCCCCC(=O)[O-].[Na+]", "note": "[sodium decanoate]", "values": [{"measurement": "Monatin/dcw, 24 hours", "setting": "[1]", "value": 45.7, "unit": "mg/g"}, {"measurement": "Monatin/dcw, 30 hours", "setting": "[1]", "value": 58.6, "unit": "mg/g"}, {"measurement": "Monatin/dcw, 48 hours", "setting": "[1]", "value": 81.7, "unit": "mg/g"}, {"measurement": "Monatin/dcw, 24 hours", "setting": "[2]", "value": 32.3, "unit": "mg/g"}, {"measurement": "Monatin/dcw, 30 hours", "setting": "[2]", "value": 41.7, "unit": "mg/g"}, {"measurement": "Monatin/dcw, 48 hours", "setting": "[2]", "value": 61.1, "unit": "mg/g"}, {"measurement": "Monatin/dcw, 24 hours", "setting": "[3]", "value": 10.7, "unit": "mg/g"}, {"measurement": "Monatin/dcw, 30 hours", "setting": "[3]", "value": 29.7, "unit": "mg/g"}, {"measurement": "Monatin/dcw, 48 hours", "setting": "[3]", "value": 39.3, "unit": "mg/g"}, {"measurement": "Mean monatin per dry cell weight, 24 hours", "setting": "[4]", "value": 34.4, "unit": "mg/g"}, {"measurement": "Mean monatin per dry cell weight, 30 hours", "setting": "[4]", "value": 85.0, "unit": "mg/g"}, {"measurement": "Mean monatin per dry cell weight, 48 hours", "setting": "[4]", "value": 137.3, "unit": "mg/g"}]}]}
